Test system: 4F2hc
Experiment: 4F2hc on large-cell fraction of interferon γ-stimulated THP-1, peak value by FACScan
Type: cell-based, human
Method: The same procedures as in Experimental Example 2 were taken except the following conditions: human leukemia culture cell line THP-1 was used instead of the human peripheral blood mononuclear cells; the final addition concentration of the test compound (6-2) was set to 100 nM; fetal bovine serum was used instead of the human AB serum; and human recombinant interferon γ (PHP050, Serotec) (final concentration: 100 ng/ml) was used instead of LPS. Also, using rabbit anti-human 4F2hc polyclonal antibodies (see Biol Pharm Bull 30: 415-422, 2007) as the primary antibody, the peak value of HAT expressed on the fraction of large-cells in human leukemia culture cell strain THP-1, compared with those not stimulated with LPS, was measured. As a control, the one with no test-compound (DMSO alone) was used, and the rabbit anti-human rBAT polyclonal antibodies were obtained in the same manner as in Experimental Example 2.

## O=C1CCC(F)(C(=O)OCc2ccccc2)O1 (centres unmarked) [Compound (6-2)]
THP-1 + human recombinant interferon γ 100 ng/ml, test compound 100 nM, solvent control 16
  Change in HAT expressed on large-cell fraction of THP-1 (peak value by FACScan), 4F2hc: 10
THP-1 + interferon γ, summary of Table 4
  amount of 4F2hc in the heavy chain of HAT (in words): selectively decreased
